“And” between values parts separate entries of the source, which are not always exact repeats. Equal entries are not always repeated. Where two headings read alike, the source gives them in different places.
What was measured:
[1] = tested on: bvFTD patients; experiment: Phase 3 bvFTD trial: clinical and MRI endpoints by Cmax,ss group; format: in vivo, human
From the text: The trial design for the Phase 3 trial of LMTM in behavioural variant frontotemporal dementia (bvFTD) is described in Examples 3 to 10 of WO2018/041739, which Examples also discuss those results. The disclosure of those Examples is specifically incorporated herein by reference.
The population PK model described above was used to estimate Cmax of parent MT in the patients in the bvFTD study. As with the AD trials described above, the median value at each dose was taken as a threshold for dividing patients into “High Cmax” and “Low Cmax” groups.
However the decline in the Cmax high group was much reduced (−6.1±1.8). All efficacy analyses are based on an MMRM approach
Alternative efficacy analyses were performed in which the group of patients with minimal systemic exposure to the drug was used as a proxy for placebo. These are shown in the Table EX8 below and illustrated in FIG. 19.
In addition, a linear term was added to permit trends occurring at high concentrations to be included in the model using mean decline occurring at the 200 mg/day dose.

[2] = tested on: AD patients; experiment: Phase 3 AD studies 005 and 015: clinical and MRI volumetric endpoints by Cmax,ss group; format: in vivo, human; conditions: for EC50: Homo sapiens, 10920 h, ADAS-cog over 65 weeks, read-out: Cmax,ss concentration required for half-maximal treatment response
Method: The trial design for the Phase 3 AD studies “005” and “015” are described in Examples 4 and 3 respectively of WO2018/019823, which Examples also discuss those results. The disclosure of those Examples is specifically incorporated herein by reference. Briefly, those Phase 3 trials compared high doses of LMTM (150-250 mg/day) with a low dose (8 mg/day) intended as a mask for potential urine discolouration (Gauthier 2016; Wilcock 2018).
The results are shown in FIGS. 3a and 3b which show the same data. Patients using symptomatic treatments are labelled “Achmem”.
That threshold was <0.373 ng/mL.
A further analysis of ADAS-cog decline over 65 weeks was undertaken using a modified form of the Hill equation (Wagner, 1968) in order to estimate the minimum and maximum plasma concentrations for expected treatment response over 65 weeks. […] In addition, a linear term was added to permit trends occurring at high concentrations to be included in the model using data for doses in the range 150-250 mg/day. The expanded Hill equation was applied to the data in the form: change in parameter=Emin−(Emax*([C]−0.29))/(EC50+([C]−0.29))+(A*([C]−0.29)) where Emin is the imposed zero value, Emax is the maximum treatment effect assumed in the standard Hill equation, EC50 is the Cmax,ss at which the treatment effect is 50% of the maximum assumed in the standard Hill equation and A is a further linear term estimated by the model to take account of a potential biphasic response. […] The dose range in which the treatment response is estimated to be maximal is 20-60 mg/day.

[3] = A. All patients split by Cmax,ss 0.373 ng/mL, over 65 weeks
[4] = B. Patients receiving LMTM, 8 mg/day, over 65 weeks
[5] = LMTM, 8 mg/day, as add-on therapy (AChEI and/or memantine), over 65 weeks
[6] = LMTM, 8 mg/day, as monotherapy, over 65 weeks
[7] = LMTM, 8 mg/day, threshold 0.373 ng/ml, over 65 weeks

CN(C)c1ccc2c(c1)Sc1cc(N(C)C)ccc1N2 [LMTM, leuco-methylthioninium bis(hydromethanesulfonate)]
Lower limiting plasma concentration required for treatment response ([1]; bvFTD patients receiving 8 mg/day, expanded Hill equation): 0.29 ng/mL
Dose-response for high dose monotherapy on functional FAQ scale ([1]; bvFTD, 200 mg/day vs 8 mg/day): inverse dose-response
Predicted dose corresponding to the maximum limiting concentration ([1]; bvFTD, whole brain volume over 52 weeks): 301 mg/day
Maximum limiting concentration at which the treatment effect was lost ([1]; bvFTD, whole brain volume over 52 weeks, expanded Hill equation): 13.57 ng/mL
Predicted treatment effect relative to placebo ([2]; 4 mg bid, over 65 weeks): ~5 ADAS-cog units
ADAS-cog Difference ± SEM, Cmax,ss above vs below 0.373 ng/mL [2, 3]: −2.99 ± 0.67 ADAS-cog units
ADCS-ADL Difference ± SEM, Cmax,ss above vs below 0.373 ng/mL [2, 3]: 0.54 ± 0.94
LVV Difference ± SEM, Cmax,ss above vs below 0.373 ng/mL [2, 3]: −1.52 ± 0.34 cm^3
WBV Difference ± SEM, Cmax,ss above vs below 0.373 ng/mL [2, 3]: 3.55 ± 1.06 cm^3
ADCS-ADL Difference ± SEM, Cmax,ss above vs below 0.373 ng/mL [2, 4]: 1.22 ± 1.01
LVV Difference ± SEM, Cmax,ss above vs below 0.373 ng/mL [2, 4]: −1.78 ± 0.38 cm^3
WBV Difference ± SEM, Cmax,ss above vs below 0.373 ng/mL [2, 4]: 4.39 ± 1.18 cm^3
EC50 ([2]; LMTM combined with symptomatic treatments): 0.4 ± 0.05 ng/mL
EC50 ([2]; LMTM monotherapy): 0.32 ± 0.01 ng/mL
ADAS-cog11 Difference ± SEM, Cmax,ss above vs below 0.373 ng/mL [2, 5]: −3.52 ± 0.78
ADCS-ADL23 Difference ± SEM, Cmax,ss above vs below 0.373 ng/mL [2, 5]: 1.32 ± 1.04
LVV Difference ± SEM, Cmax,ss above vs below 0.373 ng/mL [2, 5]: −1.35 ± 0.37 cm^3
WBV Difference ± SEM, Cmax,ss above vs below 0.373 ng/mL [2, 5]: 4.69 ± 1.21 cm^3
ADAS-cog11 Difference ± SEM, Cmax,ss above vs below 0.373 ng/mL [2, 6]: −2.60 ± 1.16
ADCS-ADL23 Difference ± SEM, Cmax,ss above vs below 0.373 ng/mL [2, 6]: 0.46 ± 1.47
LVV Difference ± SEM, Cmax,ss above vs below 0.373 ng/mL [2, 6]: −1.46 ± 0.45 cm^3
WBV Difference ± SEM, Cmax,ss above vs below 0.373 ng/mL [2, 6]: 2.76 ± 1.66 cm^3
ADAS-cog11 Difference ± SEM, low Cmax add-on vs high Cmax monotherapy [2, 7]: −7.53 ADAS-cog11 units and −7.53 ± 1.22 ADAS-cog11 units
ADCS-ADL23 Difference ± SEM, low Cmax add-on vs high Cmax monotherapy [2, 7]: 6.14 ± 1.64
LVV Difference ± SEM, low Cmax add-on vs high Cmax monotherapy [2, 7]: −3.15 ± 0.62 cm^3
WBV Difference ± SEM, low Cmax add-on vs high Cmax monotherapy [2, 7]: 11.54 ± 1.87 cm^3
Dose range in which the treatment response is estimated to be maximal ([2]; expanded Hill equation, ADAS-cog decline over 65 weeks): 20 to 60 mg/day
Reduction of estimated maximum treatment effect when combined with symptomatic treatments, compared with monotherapy ([2]; expanded Hill equation, over 65 weeks): about 4 ADAS-cog units
Temporal lobe FDG-PET decline ([2]; high dose LMTM (pooled 200 mg/day)): attenuated benefit otherwise seen for LMTM monotherapy
Mean difference between monotherapy and add-on, ADAS-cog change ([2]; pooled 8 mg/day (4 mg bid), Studies 005 and 015, over 65 weeks): ~4 ADAS-cog units
